What all share (format): biochemical
Assay [1] has as its target T1, Arthrobacter sp. S3* Bgal2 (GH2 β-D-galactosidase) (Arthrobacter sp. ON14, UniProt D9IU58).
T1 construct: gene galA
Put plainly: o-nitrophenol release, absorbance […] nm, Lineweaver-Burk. To be noted: 20 mM potassium phosphate, 50 mM KCl, pH 7.5, 20 °C; read-out: Km (mM) / ONPG. The source says:
S3* Bgal2 (GH2 β-D-galactosidase)

Assay [2] deals with T2, Arthrobacter sp. S3* Bgal42 (GH42 β-D-galactosidase) (Arthrobacter sp. ON14, UniProt D9IU57, P2A/G388S/G665D).
T2 construct: gene galB
Nature of the assay: inhibition of ONPG hydrolysis, absorbance […] nm. To be noted: 5 mM monosaccharide, 1-5 mM ONPG, 20 mM potassium phosphate, pH 7.0, 30 °C, read-out: apparent Ki.

The target of assay [3] is T1, Arthrobacter sp. S3* Bgal2 (GH2 β-D-galactosidase). Nature of the assay: glucose release by Glucose (GO) Assay Kit, Lineweaver-Burk. To be noted: read-out: Km (mM) / Lactose; 20 mM potassium phosphate, 50 mM KCl, pH 7.5, 20 °C. The source says:
glucose release by Glucose (GO) Assay Kit, Lineweaver-Burk on Arthrobacter sp. S3* Bgal2 (GH2 β-D-galactosidase)

Where two headings read alike, the source gives them in different places.

T2 sequence (D9IU57 entry or part of it P2A/G388S/G665D): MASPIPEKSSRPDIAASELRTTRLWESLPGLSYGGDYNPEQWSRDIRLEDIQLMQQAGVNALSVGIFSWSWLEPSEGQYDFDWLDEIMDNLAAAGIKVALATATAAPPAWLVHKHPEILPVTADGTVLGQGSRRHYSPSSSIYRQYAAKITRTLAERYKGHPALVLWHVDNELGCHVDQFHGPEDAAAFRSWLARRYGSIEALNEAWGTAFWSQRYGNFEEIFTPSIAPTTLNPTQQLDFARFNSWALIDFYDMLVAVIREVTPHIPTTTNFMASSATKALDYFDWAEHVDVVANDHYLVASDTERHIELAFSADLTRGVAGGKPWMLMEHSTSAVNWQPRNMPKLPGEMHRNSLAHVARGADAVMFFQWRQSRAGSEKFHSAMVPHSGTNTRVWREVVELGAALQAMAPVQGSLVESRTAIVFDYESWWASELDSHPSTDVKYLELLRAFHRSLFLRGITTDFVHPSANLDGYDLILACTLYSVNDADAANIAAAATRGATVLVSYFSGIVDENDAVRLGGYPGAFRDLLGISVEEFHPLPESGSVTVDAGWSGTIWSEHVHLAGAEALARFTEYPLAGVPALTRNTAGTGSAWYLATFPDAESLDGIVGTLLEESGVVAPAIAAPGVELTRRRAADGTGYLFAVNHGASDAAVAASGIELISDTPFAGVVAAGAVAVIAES
T1 sequence (D9IU58 entry or part of it): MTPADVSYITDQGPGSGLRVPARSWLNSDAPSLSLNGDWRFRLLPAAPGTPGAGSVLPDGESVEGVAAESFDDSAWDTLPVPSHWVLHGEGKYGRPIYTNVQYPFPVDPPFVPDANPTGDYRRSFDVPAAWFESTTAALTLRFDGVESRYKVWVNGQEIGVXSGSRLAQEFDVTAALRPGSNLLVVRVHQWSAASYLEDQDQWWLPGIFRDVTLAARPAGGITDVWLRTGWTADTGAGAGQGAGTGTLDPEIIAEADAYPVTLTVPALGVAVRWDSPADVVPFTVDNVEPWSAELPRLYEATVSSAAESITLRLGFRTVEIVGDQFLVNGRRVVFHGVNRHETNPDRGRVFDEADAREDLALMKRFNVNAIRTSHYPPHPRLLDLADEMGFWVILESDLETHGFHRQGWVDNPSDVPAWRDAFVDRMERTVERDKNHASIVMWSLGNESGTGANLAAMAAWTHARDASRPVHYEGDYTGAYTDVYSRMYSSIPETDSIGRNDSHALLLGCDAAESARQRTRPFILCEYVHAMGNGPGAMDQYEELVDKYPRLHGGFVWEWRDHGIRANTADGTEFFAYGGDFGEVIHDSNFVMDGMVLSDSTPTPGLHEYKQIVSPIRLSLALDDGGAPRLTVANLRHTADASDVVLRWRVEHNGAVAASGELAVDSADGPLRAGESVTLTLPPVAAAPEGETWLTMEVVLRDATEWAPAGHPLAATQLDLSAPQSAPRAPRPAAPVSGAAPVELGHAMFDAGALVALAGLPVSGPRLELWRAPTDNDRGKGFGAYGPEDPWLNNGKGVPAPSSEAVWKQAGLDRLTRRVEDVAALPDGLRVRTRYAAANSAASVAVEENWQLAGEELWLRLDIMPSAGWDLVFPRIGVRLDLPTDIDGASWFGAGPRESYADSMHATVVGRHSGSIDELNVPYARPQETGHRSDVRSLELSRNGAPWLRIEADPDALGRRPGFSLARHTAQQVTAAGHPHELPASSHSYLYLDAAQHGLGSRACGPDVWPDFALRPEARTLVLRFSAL

In the case of `O=[N+]([O-])c1ccccc1O[C@@H]1O[C@H](CO)[C@H](O)[C@H](O)[C@H]1O` [ONPG], the Km in assay [1] turned out to be 0.32 ± 0.07 mM.
Regarding `OC[C@H]1OC(O)[C@H](O)[C@@H](O)[C@H]1O` (stereo partly drawn) [D-galactose], in assay [2] (competitive), the Ki was determined as 2.99 mM.
Turning to `OC[C@H]1O[C@@H](O[C@H]2[C@H](O)[C@@H](O)C(O)O[C@@H]2CO)[C@H](O)[C@@H](O)[C@H]1O` (stereo partly shown) [lactose], the Km in assay [3] was 16.7 ± 0.81 mM.
In the case of `OC[C@H]1OC(O)[C@H](O)[C@@H](O)[C@@H]1O` (stereo partly drawn) [D-glucose], the Ki in assay [2] (uncompetitive) was determined as 6.01 mM.

These data come from publication PMC11677235, “Heterologous Production, Purification and Characterization of Two Cold-Active β-D-Galactosidases with Transglycosylation Activity from the Psychrotolerant Arctic Bacterium Arthrobacter sp. S3* Isolated from Spitsbergen Island Soil” (International Journal of Molecular Sciences, 2024).
